The values that follow come from patent US5925667A, “Pyrrolidine derivative, anti-ulcer drug, and antibacterial drug” (Shiseido Co., Ltd., priority 1997, dated 1999).

In data set [1] the test system is stress ulcer. The data set can be described thus: WIS: Restraint and Water Immersion Stress-Induced Ulcer Inhibition Test. In kind it is in vivo, male Crj:SD or Slc:SD rats. To be noted: rat; for inhibition in vivo at 100 mg/kg: 100 mg/kg oral, 7 h water immersion stress, read-out: ulcer formation inhibitory rate (WIS). As to the method: WIS: Restraint and Water Immersion Stress-Induced Ulcer Inhibition Test
The degree of inhibition of the stress ulcer formation is tested.
Male Crj:SD or Slc:SD rats (6 to 7-week-old) were fasted overnight, but allowed free access to water. Each group has 5 to 8 of these rats. The sample compound was dissolved or suspended in an aqueous solution of 0.3% sodium carboxymethylcellulose or 0.05% Tween 80 and then was orally administered (100 mg/10 ml/kg. To a control group, the vehicle was administered. 10 minutes later, the rats were placed in a stress cage and immersed to the level of xipfoid process in a water bath (21° C.) for 7 hours. At the end of the stress, the rats were sacrificed by inhalation of ether or carbon dioxide. Then, the stomach of each was removed, inflated by injecting 10 ml of 5% formalin neutral buffer solution, and immersed in 1% formalin neutral buffer solution for 30 minutes or more to be fixed. The stomach was incised along the greater curvature and then the length of each erosion in the glandular portion was determined under dissecting microscope. The sum of the length of erosions per stomach was defined as ulcer index (UI).
The effect obtained when 100 mg/kg of the sample compound had been administered was expressed as ulcer formation inhibitory rate (%) as follows:
ulcer formation inhibitory rate (%)=(1-(UI in sample group/UI in control group))×100

Data set [2] deals with Slc:ICR mice. Also on record: species or system male Slc:ICR mice. Particulars: mouse, in vivo. As to the method:
AT: Single Dose Toxicity Pretest
Male Slc:ICR mice (5-week-old) were used. Each group has 3 to 5 mice and each mouse was fasted, but allowed free access to water, for 4 to 5 hours from 9 a.m. in the test day. Then, 2,000 mg/10 ml/kg of the sample compound dissolved or suspended in an aqueous solution of 0.5% sodium carboxymethyl cellulose was orally administered thereto. To a control, only the vehicle was administered. […] The body weight was measured before and after the fasting as well as at the same time everyday. The dead animals were immediately subjected to autopsy and their organs were observed by naked eyes. Also, the living animals were sacrificed with ether or carbon dioxide one week after the administration and then their organs were observed by naked eyes.
The toxicity at the single dose of 2,000 mg/kg of the sample compound was expressed as being classified into 5 levels.
5: Mortality rate is 0%; no toxicity is found at all both in behavior and organs.
4: Mortality rate is 0%; while no toxicity is found in organs, slight toxicity is observed in behavior or body weight increase.
3: While there is a dead animal (though not all the animals are dead), no toxicity is found in organs.
2: Regardless of whether there is a dead animal or not, toxicity is found in organs.
1: All the animals are dead.

Data set [3] concerns isolated gastric fundic gland. The data set can be described thus: CAP: Acid Secretion Inhibition Test In Vitro ([14C]-aminopyrine uptake test). To be noted: Oryctolagus cuniculus; final concentration 10^-5 M, histamine 10^-5 M; read-out: acid secretion inhibitory rate (CAP). Type of data set: cell-based, male Japanese White rabbit. The protocol:
CAP: Acid Secretion Inhibition Test In Vitro
The acid secretion inhibitory activity in a cell level is studied. It can also be used for studying the mechanism of the effect.
ii-a) Preparation of isolated gastric fundus gland suspension
First, an isolated gastric fundic gland sample was prepared. Namely, a male Japanese White rabbit (2.5 to 3 kg) was anesthetized to death with Nembutal™ and then the abdomen was incised. Immediately thereafter, the stomach was removed and, after its pyloric and cardiac antrum were severed, incised along its greater curvature into two sheets. The gastric contents adhering to the mucosal surface was washed out with ice-cooled PBS (-) and then carefully washed therein. The gastric wall was spread on a cork board with its mucosal surface facing up and the feed and mucus thereon were completely removed with sterile gauze. The mucosa was separated therefrom by a spatula and then collected in ice-cooled PBS (-). After being washed twice with PBS (-), the mucosa was minced into 2-3 mm^3 pieces by scissors. These pieces were further washed twice with a nutrient solution. The nutrient solution comprises 132.4 mM of NaCl, 5.4 mM of KCl, 5 mM of Na2 HPO4.12H2 O, 1 mM of NaH2 PO4.2H2,
1.2 mM of MgSO4, 1 mM of CaCl2, 25 mM of HEPES, 2 mg/ml of glucose, and 1 mg/ml of BSA.
Into 70 ml of the nutrient solution containing 1 mg/ml of collagenase, minced mucosal pieces were dispersed and intensely stirred in a conical flask with a stirrer at 37° C. for 40 to 60 minutes. During this period, 100% O2 was sprayed on the nutrient solution surface and the pH was appropriately measured such that it was immediately adjusted to pH 7.4, when the value was therebelow, with a base. The nutrient solution was added to the reaction solution so as to attain the total amount of about 200 ml. After being filtered through a mesh, the suspension was divisionally introduced into 50 ml centrifuge tubes and left for 15 minutes such that gastric fundic gland was deposited. The supernatant was repeatedly removed by an aspirator, dispersed in the nutrient solution, and then left such that the gastric fundic gland was washed three times. At this time, without using a pipette, the suspension was alternately introduced into two centrifuge tubes so as to effect dispersion. The number of cells was counted under microscope and adjusted to 1.6×10^6 cells/ml.
ii-b) [^14 C]-aminopyrine uptake test.
Then, [^14 C]-aminopyrine uptake test was performed. After an Eppendorf tube was weighed, 10 μl (final concentration: 10^-5 M) of histamine dissolved in the above-mentioned nutrient solution, 10 μl (final concentration: 10^-5 M) of the test compound dissolved in DMSO, and 10 μl (final concentration: 0.05 μCi/ml) of [^14 C]-aminopyrine diluted with the nutrient solution were introduced therein and then 970 μl of the isolated gastric fundic gland suspension prepared above was added thereto. Subsequently, this mixture was shaken at 37° C. for 40 minutes at 125 cycles/minute. After being centrifuged for 30 seconds, 200 μl of its supernatant was collected into a mini-vial, while the rest was removed by an aspirator. The gland pellet was completely dried as the tube with its lid being opened was kept for one night in a drying oven at 80° C. and then the lid was closed and the weight was determined at room temperature. Then 100 μl of 1N KOH was added thereto and the tube with its lid being closed was treated at 60° C. for 1 to 2 hours so as to dissolve the pellet. Then, the contents thereof were transferred to a mini-vial. Into the mini-vial containing the supernatant or gland pellet, 4 ml of Atomlite™ was added and then the radioactivity was measured by a liquid scintillation counter. Here, after the radioactivity of the gland pellet was corrected by using a sample in which 20 mM of NaSCN was added so as to cancel the hydrogen ion concentration gradient, the integration ratio of aminopyrine specifically trapped by the gland pellet was calculated. […]

The nature of data set [4]: MTT: Cell Damaging and Protecting Effect Test. To be noted: rabbit, gastric mucosa cells, final concentration 10^-4 M, smaller value is better, read-out: cell damaging rate (MTT). In kind it is cell-based, male Japanese White rabbit. The text has this: MTT: Cell Damaging and Protecting Effect Test
It is confirmed that there is no toxicity in cell level. Those having a toxicity in cell level are inappropriate as an anti-ulcer drug.
A male Japanese White rabbit (2.5 to 3 kg) was anesthetized to death by Nembutal™ and, immediately thereafter, its stomach was removed. The greater curvature of the stomach was incised so as to remove the stomach contents therefrom. After the mucosal surface was washed with HBSS (Hanks' Balanced Salt Solution), the stomach in ice-cooled HBSS was transferred to a laboratory. Then, after the pyloric antrum was removed, the gastric corpus mucosa was separated by a spatula and then minced into 2 to 3 mm^3 pieces in BME (Basal Medium Eagle). Thereafer, these pieces were shaken at 120 to 130 cycles/minute for 15 minutes at 37° C. in BME 60 ml containing 280 U/ml of dispase and 30 to 50 U/ml of collagenase. Here, the concentration of collagenase was appropriately changed for each lot in view of the state of cells. The pieces were washed twice with EBSS (Earle's Balanced Salt Solution) containing 1 mM of EDTA and then shaken in MEM (Minimum Essential Medium) containing 1 mM of EDTA at 37° C. for 5 minutes. Subsequently, they were shaken in the dispase and collagenase having the same concentrations as those mentioned above for 15 minutes so as to remove the supernatant and then further shaken at 37° C. for 50 to 60 minutes at 120 to 130 cycles/minute. Then, after being washed twice with HBSS, Ham F12 containing 2% of Ultrocer G™ was used to attain the concentration of 1×10^6 cells/ml. Thus formed suspension was dispensed in each well of a 96-well plate by 200 μl. The plate was incubated in the atmosphere composed of 5% CO2 and 95% air at 37° C. for three days so as to attain a confluent state and then subjected to MTT assay.
The sample compound was dissolved in DMSO so as to attain a concentration of 10^-2 M and then diluted with HBSS containing 2% of Ultrocer G™ so as to attain a final concentration of 10^-4 M. To each group, which 8 wells were used for, 10 μl of MTT reagent was added immediately after 100 μl of the medium in each well was exchanged for same volume of the resulting solution of the sample compound. After being incubated in an atmosphere composed of 5% CO2 and 95% air at 37° C. for 4 hours, thus formed solution was centrifuged and then its supernatant was discarded. Subsequently, 100 μl of 100% ethanol was added to the residue so as to dissolve MTT formazan. Then, the absorbance (OD: 570 to 630) was measured by a microplate reader. This method utilizes a phenomenon in which MTT is changed to MTT formazan only by mitochondria of living cells so as to change color.
The cell damaging or cell protecting effect of the sample compound at the final concentration of 10^-4 M was expressed as cell damaging rate (%) as follows:
cell damaging rate (%)=(1-(absorbance in sample group/absorbance in control group))×100
Accordingly, the smaller value is better in the cell damaging rate.

On to `CCN1CCCC1CNC(=O)c1ccc(OC/C=C(/C)CCC=C(C)C)cc1` (stereo not shown) [Example 4, 1-ethyl-2-(4-neryloxybenzoylaminomethyl)pyrrolidine], for which the inhibition in vivo at 100 mg/kg in data set [1] stood at 68%. In addition, the “toxicity at single dose (AT), 5 levels” value in data set [2] came out at 5. Also, in data set [3], the inhibition at 10 µM is 100%.

Regarding `CCN1CCCC1CNC(=O)c1cc(OCC=C(C)C)cc(OCC=C(C)C)c1` (stereo not shown) [Example 8, 1-ethyl-2-(3,5-diprenyloxybenzoylaminomethyl)pyrrolidine], the inhibition in vivo at 100 mg/kg in data set [1] amounted to 81%. For the same molecule, the “toxicity at single dose (AT), 5 levels” value in data set [2] worked out at 5. In data set [3], the inhibition at 10 µM amounted to 100%.

As for `CCN1CCCC1CNC(=O)c1cc(OC/C=C(\C)CCC=C(C)C)cc(OC/C=C(\C)CCC=C(C)C)c1` (stereo not shown) [Example 12, 1-ethyl-2-(3,5-digeranyloxybenzoylaminomethyl)pyrrolidine], the inhibition in vivo at 100 mg/kg in data set [1] came out at 82%. Also, the cytotoxicity at 4 h, 100 µM in data set [4] was determined as 29%. The inhibition at 10 µM in data set [3] amounted to 100%.

Regarding `CCN1CCCC1CNC(=O)c1ccccc1SC/C=C(\C)CCC=C(C)C` (stereo not shown) [Example 14, 1-ethyl-2-(2-geranylthiobenzoylaminomethyl)pyrrolidine], the inhibition in vivo at 100 mg/kg in data set [1] stood at 81%. In addition, the “anti-ulcer effect (in words)” value in data set [1] (in vivo) is on record as “the effect has been maintained”. The cytotoxicity at 4 h, 100 µM in data set [4] worked out at 27%. In addition, in data set [3], the inhibition at 10 µM is 98.1%.

Take `CCN1CCCC1CNC(=O)c1ccc(OC/C=C(\C)CCC=C(C)C)c(OC)c1` (stereo not shown) [Example 16, 1-ethyl-2-(4-geranyloxy-3-methoxybenzoylaminomethyl)pyrrolidine]: the inhibition in vivo at 100 mg/kg in data set [1] was found to be 72%. Besides, the “toxicity at single dose (AT), 5 levels” value in data set [2] is reported as 4. In addition, the inhibition at 10 µM in data set [3] worked out at 99.8%.

With `CCN1CCCC1CNC(=O)c1cccc(OC)c1OC/C=C(\C)CCC=C(C)C` (stereo not shown) [Example 17, 1-ethyl-2-(2-geranyloxy-3-methoxybenzoylaminomethyl)pyrrolidine], the inhibition in vivo at 100 mg/kg in data set [1] came to 82%. In data set [4], the cytotoxicity at 4 h, 100 µM was 22%. The inhibition at 10 µM in data set [3] amounted to 100%.

On to `CCN1CCCC1CNC(=O)c1cc(OC)c(OC)c(OCC=C(C)C)c1` (stereo not shown) [Example 23, 1-ethyl-2-(3,4-dimethoxy-5-prenyloxybenzoylaminomethyl)pyrrolidine], for which, in data set [1], the inhibition in vivo at 100 mg/kg amounted to 79%. Further, in data set [4], the cytotoxicity at 4 h, 100 µM is -3%. For the same molecule, in data set [3], the inhibition at 10 µM came out at 73.1%.
